Results published in patent US20080021067A1, “Methods For The Treatment Of Substance Abuse And Addiction” (priority 2004, published 2008).
“Also recorded” adds a separate entry of the source.

Assays:
Male Wistar rats = assay: Maintenance operant nicotine self-administration; type: in vivo, rat
Method: Animals: Male Wistar rats were used in all experiments. Body weight was 180-200 g at the start of the experiments. Rats were housed 2-3 per cage with food and water available ad libitum. Lights were on a 12-hour light/dark cycle, with lights on at 0600. All procedures met the guidelines of the National Institutes of Health Guide for the Care and Use of Laboratory Animals.
Operant Nicotine Self-Administration: Nicotine (Sigma Chemical Co., St. Louis, Mo.) was added to saline to achieve a concentration of 0.03 mg/ml. Standard operant chambers (Med Associates, VT) housed in sound-attenuated chambers were used for nicotine self-administration. Syringe pumps delivered nicotine via tygon tubing. The two retractable levers were located 12 cm apart and 4 cm above the floor. Fluid delivery and recording of operant responding were controlled by microcomputer. Rats were trained on a […] fixed-ratio 4 (FR4) schedule to self-administer nicotine (0.03 mg/ml, 0.1 ml per delivery) in 60 minute sessions. Once reliable levels of nicotine-reinforced self-administration were achieved, the effect of Compound A (0, and 20 mg/kg) on maintenance levels of responding was investigated.

hMC3R [1] = biological target: T1, hMC3R (Homo sapiens, UniProt P41968); assay: Membrane binding assay, 125I-NDP-alpha-MSH competition; settings: ratio IC50 MC-3R / IC50 MC-4R
T1 construct: expressed in transfected cells; host or cells: CHO- or L-cells or other eukaryotic cells
Method: (§1) The membrane binding assay was used to identify competitive inhibitors of ^125I-NDP-alpha-MSH binding to cloned human MCRs expressed in mouse L- or Chinese hamster ovary (CHO)-cells.
(§2) Cell lines expressing melanocortin receptors were grown in T-180 flasks containing selective medium of the composition: 1 L Dulbecco's modified Eagles Medium (DMEM) with 4.5 g L-glucose, 25 mM Hepes, without sodium pyruvate, (Gibco/BRl); 100 ml 10% heat-inactivated fetal bovine serum (Sigma); 10 mL 10,000 unit/mL penicillin & 10,000 μg/mL streptomycin (Gibco/BRl); 10 ml 200 mM L-glutamine (Gibco/BRl); 1 mg/mL geneticin (G418) (Gibco/BRl). The cells were grown at 37° C. with CO2 and humidity control until the desired cell density and cell number was obtained.
(§3) The medium was poured off and 10 mls/T-180 flask of enzyme-free dissociation media (Specialty Media Inc.) was added. The cells were incubated at 37° C. for 10 min or until cells sloughed off when flask was banged against hand.
(§4) The cells were harvested into 200 mL centrifuge tubes and spun at 1000 rpm, 4° C., for 10 min. […]
(§5) The mixture was filtered with Packard Microplate 196 filter apparatus using Packard Unifilter 96-well GF/C filter with 0.1% polyethyleneimine (Sigma). […] The top was sealed and the radioactivity quantitated in a Packard Topcount Microplate Scintillation counter.

hMC5R [2] = biological target: T2, hMC5R (Homo sapiens, UniProt P33032); assay: as above; settings: ratio IC50 MC-5R / IC50 MC-4R
T2 construct: expressed in transfected cells; host or cells: CHO- or L-cells or other eukaryotic cells
Method: as §1, §2, §3, §4, §5

hMC1bR = hMC1bR (Homo sapiens, UniProt Q01726); assay: cAMP functional assay (agonist); type: cell-based; settings: selective functional activity
Method: (§6) Cells (for example, CHO- or L-cells or other eukaryotic cells) expressing a human melanocortin receptor (see e.g. Yang-Y K; Ollmann-M M; Wilson-B D; Dickinson-C; Yamada-T; Barsh-G S; Gantz-I; Mol-Endocrinol. 1997 March; 11(3): 274-80) were dissociated from tissue culture flasks by rinsing with Ca and Mg free phosphate buffered saline (14190-136, Life Technologies, Gaithersburg, Md.) and detached following 5 min incubation at 37° C. with enzyme free dissociation buffer (S-0,4-B, Specialty Media, Lavellette, N.J.). Cells were collected by centrifugation and resuspended in Earle's Balanced Salt Solution (14015-069, Life Technologies, Gaithersburg, Md.) with additions of 10 mM HEPES pH 7.5, 5 mM MgCl2, 1 mM glutamine and 1 mg/ml bovine serum albumin. Cells were counted and diluted to 1 to 5×10^6/mL. The phosphodiesterase inhibitor 3-isobutyl-1-methylxanthine was added to cells to 0.6 mM.
(§7) Agonist Assay: Test compounds were diluted in dimethylsulfoxide (DMSO) (10^−5 to 10^−10 M) and 0.1 volume of compound solution was added to 0.9 volumes of cell suspension; the final DMSO concentration was […]. After room temperature incubation for 45 min, cells were lysed by incubation at 100° C. for 5 min to release accumulated cAMP.
(§8) cAMP was measured in an aliquot of the cell lysate with the Amersham (Arlington Heights, Ill.) cAMP detection assay (RPA556). The amount of cAMP production which resulted from an unknown compound was compared to that amount of cAMP produced in response to alpha-MSH which was defined as a 100% agonist. The EC50 is defined as the compound concentration which results in half maximal stimulation, when compared to its own maximal level of stimulation.

hMC3R [3] = biological target: T1, hMC3R; assay: cAMP functional assay (agonist); type: cell-based
Method: as §6, §7, §8

hMC2R = biological target: T3, hMC2R (Homo sapiens, UniProt Q01718); assay: cAMP functional assay (agonist); type: cell-based
T3 construct: expressed in transfected cells; host or cells: CHO- or L-cells or other eukaryotic cells
Method: as §6, §7, §8

hMC5R [4] = biological target: T2, hMC5R; assay: cAMP functional assay (agonist); type: cell-based
Method: as §6, §7, §8

[5] = selective functional activity, 45 min

T2 sequence (P33032 whole entry): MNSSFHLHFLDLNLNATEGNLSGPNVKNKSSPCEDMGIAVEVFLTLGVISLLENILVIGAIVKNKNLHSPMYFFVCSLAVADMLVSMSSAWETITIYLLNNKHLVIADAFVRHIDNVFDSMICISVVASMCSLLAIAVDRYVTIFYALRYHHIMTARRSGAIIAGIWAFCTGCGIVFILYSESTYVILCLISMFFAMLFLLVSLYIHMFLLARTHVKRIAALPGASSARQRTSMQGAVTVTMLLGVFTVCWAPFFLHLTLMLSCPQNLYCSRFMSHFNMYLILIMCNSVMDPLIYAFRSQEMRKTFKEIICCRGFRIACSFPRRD
T1 sequence (P41968 whole entry): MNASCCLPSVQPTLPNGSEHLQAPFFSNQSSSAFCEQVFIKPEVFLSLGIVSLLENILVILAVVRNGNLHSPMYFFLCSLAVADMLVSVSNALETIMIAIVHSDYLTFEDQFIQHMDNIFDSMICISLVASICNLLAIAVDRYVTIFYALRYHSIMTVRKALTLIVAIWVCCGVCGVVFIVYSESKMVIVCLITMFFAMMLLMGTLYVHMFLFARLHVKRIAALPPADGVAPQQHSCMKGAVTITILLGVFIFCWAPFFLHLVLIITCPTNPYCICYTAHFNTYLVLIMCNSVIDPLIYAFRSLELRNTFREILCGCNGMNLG
T3 sequence (Q01718 whole entry): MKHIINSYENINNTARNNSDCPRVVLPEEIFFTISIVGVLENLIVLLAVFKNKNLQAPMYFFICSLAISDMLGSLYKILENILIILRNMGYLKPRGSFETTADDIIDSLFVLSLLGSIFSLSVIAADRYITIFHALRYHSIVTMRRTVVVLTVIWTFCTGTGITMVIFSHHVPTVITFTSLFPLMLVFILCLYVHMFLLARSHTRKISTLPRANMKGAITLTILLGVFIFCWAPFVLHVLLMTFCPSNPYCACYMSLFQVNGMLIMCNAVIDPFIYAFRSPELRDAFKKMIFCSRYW
Sequence of hMC1bR (Q01726 whole entry): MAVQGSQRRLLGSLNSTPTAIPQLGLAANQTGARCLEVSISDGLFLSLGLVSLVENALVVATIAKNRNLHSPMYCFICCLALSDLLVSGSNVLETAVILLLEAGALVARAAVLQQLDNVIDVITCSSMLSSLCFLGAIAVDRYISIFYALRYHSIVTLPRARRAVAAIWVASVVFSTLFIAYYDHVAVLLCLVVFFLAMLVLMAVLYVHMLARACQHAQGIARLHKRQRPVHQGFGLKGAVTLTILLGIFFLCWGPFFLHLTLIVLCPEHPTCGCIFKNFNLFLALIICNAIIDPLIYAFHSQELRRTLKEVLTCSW

Selectivity Binding IC50 3R/4R (hMC3R [1]): 163.6
Selectivity Binding IC50 5R/4R (hMC5R [2]): 36.36
EC50 for melanocortin 4 receptor lower than for melanocortin 1 receptor (hMC1bR): at least 120 fold
Selectivity cAMP EC50 3R/4R (hMC3R [3]; ratio EC50 MC-3R / EC50 MC-4R): 65.71
EC50 for melanocortin 4 receptor lower than for melanocortin 3 receptor (hMC3R [3]; [5]): at least 65 fold
Selectivity cAMP EC50 2R/4R (hMC2R; ratio EC50 MC-2R / EC50 MC-4R): >714.2
EC50 for melanocortin 4 receptor lower than for melanocortin 2 receptor (hMC2R; [5]): at least 700 fold
Selectivity cAMP EC50 5R/4R (hMC5R [4]; ratio EC50 MC-5R / EC50 MC-4R): 100
EC50 for melanocortin 4 receptor lower than for melanocortin 5 receptor (hMC5R [4]; [5]): at least 100 fold
Structure (SMILES): CC[C@H](NC(C)=O)c1cc(Cl)ccc1C1CCN(C(=O)[C@@H]2CN(C(C)(C)C)C[C@H]2c2ccc(F)cc2F)CC1 [Compound A]
effect on maintenance levels of nicotine self-administration (nicotine infusions) (Male Wistar rats; 20 mg/kg po prior to testing, 60 minute session, vs baseline (p=0.0001)): significant reductions from baseline levels; also recorded: significant reduction
response rates on the alternate (non-drug reinforced) lever (Male Wistar rats; Wistar rats, any dose tested (0, 20 mg/kg)): not significantly altered; also recorded: no significant effects
reduction of nicotine self administration (Male Wistar rats; Wistar rats, pre-treatment, maintenance period of regular nicotine use): approximately 85%
